Data reported in PMC2409895, “Antitumour efficacy of VEGFR2 tyrosine kinase inhibitor correlates with expression of VEGF and its receptor VEGFR2 in tumour models” (British Journal of Cancer, 2004).

What was measured:
human VEGFR2 kinase = biological target: T1, human VEGFR2 kinase (Homo sapiens, UniProt P35968); test: VEGFR2 kinase assay (HTRF); assay type: biochemical; conditions: Table 1
T1 construct: GST-fusion protein encoding the catalytic carboxyl-terminus of human VEGFR kinase 1, 2, or 3; made in house; host or cells: baculovirus expression system
T1 sequence (P35968 834-1162 limits assumed): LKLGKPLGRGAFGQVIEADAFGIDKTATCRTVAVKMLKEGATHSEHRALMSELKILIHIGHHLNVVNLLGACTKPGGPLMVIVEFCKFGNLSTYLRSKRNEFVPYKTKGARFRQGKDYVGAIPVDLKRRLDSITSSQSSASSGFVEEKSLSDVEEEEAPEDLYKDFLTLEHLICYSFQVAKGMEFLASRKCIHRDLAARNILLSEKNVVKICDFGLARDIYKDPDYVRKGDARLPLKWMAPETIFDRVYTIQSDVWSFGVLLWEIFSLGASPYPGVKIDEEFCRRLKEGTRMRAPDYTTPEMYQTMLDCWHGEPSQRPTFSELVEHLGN
Description: Vascular endothelial growth factor receptor kinase assays were carried out in a homogenous time-resolved fluorescence (HTRF) format in 384-well microtitre plates using a purified, baculovirus-expressed GST-fusion protein encoding the catalytic carboxyl-terminus of human VEGFR kinase 1, 2, or 3. Reactions were initiated by the addition of 10 μl of activated VEGFR kinase (1 nM, 0.1 M HEPES pH 7.5, 0.1 mg ml^−1 BSA, and 0.30 mM DTT) to 10 μl of substrate (360 nM biotin-aminohexyl-EEEEYFELVAKKKK-NH2 peptide, 75 μM ATP, 10 mM MgCl2) and 1 μl of small molecule inhibitor at various concentrations. Plates were incubated at room temperature for 60 min, and the reaction was stopped by the addition of 20 μl 100 mM EDTA. Homogenous time-resolved fluorescence reagents (20 μl 15 nM streptavidin-linked allophycocyanin, 1 nM europium-labelled anti-phosphotyrosine antibody in 0.1 M HEPES, pH 7.5, 0.1 mg ml^−1 BSA) were added and plates were incubated for a minimum of 10 min. The fluorescence at 665 nm was measured with a Victor plate reader (Wallac, Shelton, CT, USA) using a time delay of 50 μs. […] Data were fitted with a curve described by: y=((Vmax × x)/(K+x)+Y2), where Vmax is the upper asymptote, Y2 is the Y intercept, and K is the IC50.

[1] = test system: HUVEC grown in presence of VEGF; test: VEGF-induced HUVEC proliferation (BrdU incorporation); assay type: cell-based; conditions: Homo sapiens, VEGF 10 ng ml^−1, 72 h
Description: (§1) Effect of kinase inhibitors on cell proliferation was measured using BrdU incorporation method using commercially available kits (Roche Diagnostics, Indianapolis, IN, USA). Briefly, HUVEC were seeded in a medium containing 5% FBS in type 1 Collagen-coated 96-well plates and incubated overnight at 37°C, 5% CO2. The medium was aspirated from the cells, and various concentrations of kinase inhibitors in serum-free medium were added to each well. After 30 min, VEGF (10 ng ml^−1) or bFGF (0.3 ng ml^−1) was added to the wells. Cells were incubated for an additional 72 h and BrdU (10 μM) was added during the last 18–24 h of incubation. Data were fitted with a curve described by the equation, y=Vmax × (1−(x/(K+x))), where K is equal to the IC50.

[2] = test system: HUVEC grown in presence of bFGF; test: bFGF-induced HUVEC proliferation (BrdU incorporation); assay type: cell-based; conditions: Homo sapiens, bFGF 0.3 ng ml^−1, 72 h
Description: as §1

`Cc1n[nH]c2cc(N(C)c3ccnc(Nc4cc(S(N)(=O)=O)ccc4Cl)n3)ccc12` [GW695612, 4-chloro-3-({4-[methyl(3-methyl-1H-indazol-6-yl)amino]pyrimidin-2-yl}amino)benzenesulphonamide] was tested. Which IC50 (human VEGFR2 kinase) did it give?
Its IC50 is 0.0011 µM.

And the IC50 [1]?
The IC50 was 0.26 µM.

And the IC50 [2]?
The IC50 was 3.84 µM.
